According to patent US20250082634A1, “PIM KINASE INHIBITORS FOR TREATMENT OF MYELOPROLIFERATIVE NEOPLASMS AND FIBROSIS ASSOCIATED WITH CANCER” (Sumitomo Pharma America, Inc., priority 2018, published 2025):

What was measured:
dogs = experiment: Non-GLP toxicology studies in dogs (7-day repeat); format: in vivo
Experimental: (§1) Dose calculations were determined from GLP toxicology studies in rats and non-GLP toxicology studies in dogs.
In dogs, the highest non-severely toxic dose was not observed in 7-day repeat studies at doses as high as 200 mg/kg, which equates to 7400 mg per person or greater, calculated as: […]

Metabolic stability = format: in vitro ADME; conditions: compared to Compound A
rats = experiment: GLP toxicology studies in rats; format: in vivo, rat
Experimental: as §1

[1] = tested on: JAK2 V617F-positive UKE-1 cells; experiment: Cell proliferation by viable cell counts; format: cell-based, human; conditions: 5 days
[2] = tested on: BA/F3 cells expressing wild type JAK2; experiment: Apoptosis by Annexin V staining and flow cytometry; format: cell-based; conditions: 48 hours after treatment
[3] = tested on: JAK2 V617F-positive HEL cells; experiment: Cell proliferation by viable cell counts; format: cell-based, human; conditions: 5 days
[4] = tested on: HEL, BA/F3-EpoR-JAK2 V617F, UKE-1 and SET-2 cells expressing JAK2 V617F; experiment: Apoptosis by Annexin V staining and flow cytometry; format: cell-based; conditions: 48 hours after treatment, JAK2 V617F-expressing cell lines
[5] = tested on: MPN patient CD34+ hematopoietic progenitor cells; experiment: Hematopoietic progenitor colony assay in methylcellulose; format: cell-based, human; conditions: 1-2 μM, colonies counted after 14 days
Excerpt: (§2) Hematopoietic progenitor colonies were counted after 14 days.

[6] = tested on: healthy control CD34+ cells; experiment: as above; format: cell-based, human; conditions: 1-2 μM, 14 days
Excerpt: as §2

[7] = tested on: homozygous JAK2 V617F knock-in mouse model of MF; experiment: Homozygous JAK2 V617F knock-in mouse model of MF; format: in vivo
Experimental: Bone marrow cells from homozygous JAK2 V617F knock-in mice were transplanted into lethally irradiated C57BL/6 recipients to obtain a cohort of MF mice with similar age. […] All mice were treated for 6 weeks.

PC3 cells = experiment: Colony formation assay of prostate adenocarcinoma; format: cell-based; conditions: Homo sapiens, PC-3; RPMI, pyruvate, 0.5% FBS; read-out: EC50 against PC3 cells (colony formation)
Experimental: PC3 cells were seeded in Roswell Park Memorial Institute (RPMI) media with pyruvate and 10% fetal bovine serum (FBS).

BA/F3 MPL W515L cells = experiment: Cell proliferation; format: cell-based, murine; conditions: 0.25-1 μM
Excerpt: (§3) These animals rapidly develop marked thrombocytosis and leukocytosis. At the time of sacrifice, MPL W515L expressing mice show splenomegaly and bone marrow fibrosis.

PIM 3 = PIM 3 (Homo sapiens, UniProt Q86V86); experiment: PIM kinase biochemical profile (Ki)
parental BA/F3 cells = experiment: Cell proliferation; format: cell-based, murine
[8] = tested on: ruxolitinib-resistant BA/F3-EpoR-JAK2 V617F cells; experiment: Proliferation of ruxolitinib-resistant cells by viable cell counts; format: cell-based; conditions: ruxolitinib 0.5-2 μM or Compound 1 0.25-1 μM, 5 days
[9] = tested on: BA/F3-EpoR-JAK2 V617F cells; experiment: Cell proliferation by viable cell counts; format: cell-based, murine; set-up: dose or concentration left out as unconfirmed; conditions: Compound 1, 5 days
Flt3 = Flt3 (Homo sapiens, UniProt P36888); experiment: Flt3 inhibition (IC50); format: biochemical
phospho-BAD = experiment: Reduction of phospho-BAD (PIM-1 biomarker); format: cell-based; conditions: compared to Compound A
Excerpt: The results of this assay are illustrated as a plot of the % of the control against the compound concentration (FIG. 15).

PIM 2 = PIM 2 (Homo sapiens, UniProt Q9P1W9); experiment: PIM kinase biochemical profile (Ki)
[10] = tested on: HSC maintenance, TNFα and WNT signaling pathways; experiment: RNA-sequencing of LSK cells from treated homozygous JAK2 V617F mice; format: in vivo, mouse; conditions: purified LSK cells, compared with vehicle
[11] = tested on: MPL mutant (MPL W515L) mice; experiment: MPL W515L transplantation mouse model; format: in vivo
Excerpt: as §3

PIM 1 = PIM 1 (Homo sapiens, UniProt P11309); experiment: PIM kinase biochemical profile (Ki)
[12] = tested on: BA/F3 cells expressing wild type JAK2; experiment: Cell proliferation by viable cell counts; format: cell-based, murine; conditions: wild-type JAK2, higher concentrations, 5 days
SET-2 cells = experiment: Cell proliferation by viable cell counts; format: cell-based; conditions: 5 days
[13] = tested on: PC3 prostate adenocarcinoma xenograft; experiment: PC3 prostate adenocarcinoma mouse xenograft model; format: in vivo
Phosphorylation of STAT5 = experiment: STAT5 phosphorylation immunoblot in ruxolitinib-resistant cells; format: cell-based; conditions: ruxolitinib 0.5-2 μM
[14] = Compound 1 150 mg/kg, ruxolitinib 60 mg/kg, oral gavage once daily, 6 weeks

Chain of Flt3 (P36888 27-993, species assumed): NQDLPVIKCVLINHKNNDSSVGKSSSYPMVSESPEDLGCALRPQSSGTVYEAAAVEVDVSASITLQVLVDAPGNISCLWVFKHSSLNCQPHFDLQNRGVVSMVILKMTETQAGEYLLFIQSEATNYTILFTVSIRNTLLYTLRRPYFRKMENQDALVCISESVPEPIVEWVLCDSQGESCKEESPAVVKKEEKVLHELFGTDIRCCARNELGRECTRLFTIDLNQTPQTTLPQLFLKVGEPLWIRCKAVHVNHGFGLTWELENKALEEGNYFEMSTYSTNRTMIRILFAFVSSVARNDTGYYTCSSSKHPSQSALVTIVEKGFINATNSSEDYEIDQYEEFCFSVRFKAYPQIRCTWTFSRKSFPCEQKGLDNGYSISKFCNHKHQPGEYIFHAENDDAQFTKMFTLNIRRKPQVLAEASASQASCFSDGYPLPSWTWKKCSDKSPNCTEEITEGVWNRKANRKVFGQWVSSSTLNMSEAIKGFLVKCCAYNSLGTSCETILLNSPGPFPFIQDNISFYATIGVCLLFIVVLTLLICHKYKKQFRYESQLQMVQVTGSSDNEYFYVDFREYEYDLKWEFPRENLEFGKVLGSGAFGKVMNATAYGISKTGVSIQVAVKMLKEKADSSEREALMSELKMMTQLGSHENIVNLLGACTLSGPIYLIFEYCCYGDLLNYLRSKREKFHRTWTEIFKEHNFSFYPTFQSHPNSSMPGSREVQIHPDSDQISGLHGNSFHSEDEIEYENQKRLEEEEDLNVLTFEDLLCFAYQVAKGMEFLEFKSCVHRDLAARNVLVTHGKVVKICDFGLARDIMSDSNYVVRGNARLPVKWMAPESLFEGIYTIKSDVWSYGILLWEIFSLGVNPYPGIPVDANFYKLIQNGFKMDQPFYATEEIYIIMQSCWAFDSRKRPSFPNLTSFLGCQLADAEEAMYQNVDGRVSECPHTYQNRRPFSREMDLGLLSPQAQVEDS
Chain of PIM 1 (P11309 whole entry, species assumed): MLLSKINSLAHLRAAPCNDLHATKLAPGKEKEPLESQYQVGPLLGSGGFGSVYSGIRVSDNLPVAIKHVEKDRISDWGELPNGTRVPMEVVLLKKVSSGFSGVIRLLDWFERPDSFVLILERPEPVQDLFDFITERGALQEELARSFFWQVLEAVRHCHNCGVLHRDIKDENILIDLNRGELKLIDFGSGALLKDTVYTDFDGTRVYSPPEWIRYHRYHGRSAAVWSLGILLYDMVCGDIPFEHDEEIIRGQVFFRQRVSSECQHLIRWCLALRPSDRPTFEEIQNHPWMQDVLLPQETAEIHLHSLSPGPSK
Chain of PIM 2 (Q9P1W9 whole entry, species assumed): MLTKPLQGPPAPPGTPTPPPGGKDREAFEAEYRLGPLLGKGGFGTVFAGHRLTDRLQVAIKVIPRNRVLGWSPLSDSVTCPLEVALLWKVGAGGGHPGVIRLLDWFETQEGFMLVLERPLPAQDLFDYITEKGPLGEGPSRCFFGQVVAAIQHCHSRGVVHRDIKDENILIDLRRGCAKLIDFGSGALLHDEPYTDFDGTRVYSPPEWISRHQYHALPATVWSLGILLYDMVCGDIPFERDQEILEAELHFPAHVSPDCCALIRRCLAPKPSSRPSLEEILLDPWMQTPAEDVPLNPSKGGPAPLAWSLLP

Q: Which results are given for `CC(C)(O)[C@H]1CC[C@H](Nc2ccc3ncc(-c4cccc(C(F)(F)F)c4)n3n2)CC1` [Compound 1, 2-((1R,4R)-4-((3-(3-(trifluoromethyl)phenyl)imidazo[1,2-b]pyridazin-6-yl)amino)cyclohexyl)propan-2-ol]?
A: highest non-severely toxic dose (dogs; dog, 7-day repeat studies, not observed at doses as high as): ≥ 200 mg/kg; human equivalent of dog highest non-severely toxic dose (dogs; per person): ≥ 7400 mg; metabolic stability (Metabolic stability): improved metabolic stability; human equivalent of rat severely toxic dose in 10 percent of animals (rats; average per person): 5286 mg; severely toxic dose in 10 percent of animals (rats; rat, GLP toxicology): 500 mg/kg; inhibition of proliferation [1]: markedly inhibited; apoptosis (Annexin V) [2]: not in wild type JAK2-expressing BA/F3 cells; inhibition of proliferation [3]: markedly inhibited; apoptosis (Annexin V) [4]: significant apoptosis; inhibition of hematopoietic progenitor colonies [5]: significantly inhibited; effect on hematopoietic progenitor colonies [6]: minimal effect; fibrosis in bone marrow and spleen (reticulin staining) ([7]; Compound 1 150 mg/kg, ruxolitinib 60 mg/kg, 6 weeks): marked reduction of fibrosis; neutrophil counts [7, 14]: caused reduction; peripheral blood white blood cell (WBC) counts [7, 14]: caused reduction; spleen size ([7]; homozygous JAK2 V617F mice, versus vehicle): significantly reduces; human equivalent of efficacious dose level in mouse myelofibrosis model (150 mg/kg) ([7]; per person): 925 mg; EC50 (PC3 cells): 143 nM; reduction of proliferation (BA/F3 MPL W515L cells): significantly reduced; Ki (PIM 3): 42 nM; concentration reducing proliferation (parental BA/F3 cells): greater than 1 M; inhibition of cell proliferation [8]: markedly inhibited; reduction of proliferation [9]: ~90%; IC50 (Flt3): 279 nM; potency at reducing phospho-BAD (phospho-BAD): more potent; Ki (PIM 2): 239 nM; expression of genes relating to HSC maintenance, TNFα and WNT signaling pathways [10]: significantly downregulated; splenomegaly [11]: significant decrease; Ki (PIM 1): 5 nM; inhibition of proliferation [12]: only modestly inhibited; inhibition of proliferation (SET-2 cells): dose dependent inhibition; percentage of tumor growth inhibition (% TGI) ([13]; 125 mg/kg): 59%; percentage of tumor growth inhibition (% TGI) ([13]; 200 mg/kg): 40%

Q: For `CN1CCC(CNc2ccc3ncc(-c4cccc(OC(F)(F)F)c4)n3n2)CC1` [Compound A, reference compound], which Ki (PIM 3) is on record?
A: The Ki was 20 nM.

Q: What about the IC50 (Flt3) of the same molecule?
A: Its IC50 is 3 nM.

Q: With `N#CC[C@H](C1CCCC1)n1cc(-c2ncnc3[nH]ccc23)cn1` [ruxolitinib] as the molecule, how does the “inhibition of STAT5 phosphorylation” value (Phosphorylation of STAT5) read?
A: Its value is “not inhibited”.
